# Results reported in the supplement of paper PMC10627819.
# Tests used:
# S. aureus DSM 20231 [1] = assay: Bliss interaction score (quartile over a dose matrix) (fitness difference); higher = more antagonism (negative = synergy)
# Outline: (§1)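 The Bliss score is observed minus expected fitness, where expected fitness is the product of the single-drug fitness values inferred from the combination data. Fitness is the OD595 at the onset of stationary phase over the plate's robust no-drug mean, capped at 1. Scores are summarised by quartiles over technical, biological and donor/recipient replicates.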
# S. aureus Newman [2] = assay: as above
# Outline: as §1
# B. subtilis 168 = assay: as above
# Outline: as §1
# S. pneumoniae D39V [3] = assay: as above
# Outline: as §1
# S. aureus DSM 20231 [4] = assay: fitness (endpoint OD595 vs no drug) (fraction); higher = more growth
# Outline: (§2)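 Fitness compares growth at the stationary-phase transition with the robust mean of no-drug control wells, as a ratio of optical densities. The ratio is capped at 1. Wells of 384-well plates held 30 µl, or 55 µl for S. pneumoniae, inoculated at OD595 0.01. Readings at OD595 every 30 min for 14 h at 37 °C were corrected against the first reading.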
# S. aureus Newman [5] = assay: as above
# Outline: as §2
# S. pneumoniae D39V [6] = assay: as above
# Outline: as §2
# [7] = first compound 0.0625 µg/mL, partner 1 µg/mL
# [8] = first compound 0.0625 µg/mL, partner 2 µg/mL
# [9] = first compound 0.0625 µg/mL, partner 4 µg/mL
# [10] = first compound 0.125 µg/mL, partner 1 µg/mL
# [11] = first compound 0.25 µg/mL, partner 1 µg/mL
# [12] = first compound 0.25 µg/mL, partner 2 µg/mL
# [13] = first compound 0.25 µg/mL, partner 4 µg/mL
# [14] = first compound 0.5 µg/mL, partner 2 µg/mL, one replicate
# [15] = first compound 0.5 µg/mL, partner 4 µg/mL, one replicate
# [16] = first compound 0.0625 µg/mL, partner 0.625 µg/mL
# [17] = first compound 0.125 µg/mL, partner 1.25 µg/mL
# 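For Bliss interaction score (quartile over a dose matrix) in this document: first quartile when negative (synergy) and third quartile when positive (antagonism).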
# 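For fitness (endpoint OD595 vs no drug) in this document: OD595 on entry to stationary phase over no-drug wells; at most 1.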
compound,measurement,setting,value
CC1(C)S[C@@H]2[C@H](NC(=O)[C@H](N)c3ccc(O)cc3)C(=O)N2[C@H]1C(=O)O [Amoxicillin] + Cc1cc(NS(=O)(=O)c2ccc(N)cc2)no1 [Sulfamethoxazol],Bliss interaction score,S. aureus DSM 20231 [1],-0.0441
same,Bliss interaction score,S. aureus Newman [2],-0.0589
same,Bliss interaction score,B. subtilis 168,-0.0805
same,Bliss interaction score,S. pneumoniae D39V [3],-0.09
same,fitness,S. aureus DSM 20231 [4]; [7],0.445
same,fitness,S. aureus DSM 20231 [4]; [8],0.506
same,fitness,S. aureus DSM 20231 [4]; [9],0.522
same,fitness,S. aureus DSM 20231 [4]; [10],0.376
same,fitness,S. aureus DSM 20231 [4]; [11],0.0292
same,fitness,S. aureus DSM 20231 [4]; [12],0.0368
same,fitness,S. aureus DSM 20231 [4]; [13],0.035
same,fitness,"S. aureus DSM 20231 [4]; first compound 0.5 µg/mL, partner 1 µg/mL, one replicate",0.015
same,fitness,S. aureus DSM 20231 [4]; [14],0.0516
same,fitness,S. aureus DSM 20231 [4]; [15],0.0038
same,fitness,S. aureus Newman [5]; [7],0.878
same,fitness,S. aureus Newman [5]; [8],0.88
same,fitness,S. aureus Newman [5]; [9],0.883
same,fitness,S. aureus Newman [5]; [10],0.858
same,fitness,"S. aureus Newman [5]; first compound 0.125 µg/mL, partner 2 µg/mL",0.876
same,fitness,"S. aureus Newman [5]; first compound 0.125 µg/mL, partner 4 µg/mL",0.876
same,fitness,"S. aureus Newman [5]; first compound 0.125 µg/mL, partner 8 µg/mL, one replicate",0.948
same,fitness,S. aureus Newman [5]; [11],0.81
same,fitness,S. aureus Newman [5]; [12],0.847
same,fitness,S. aureus Newman [5]; [13],0.844
same,fitness,"S. aureus Newman [5]; first compound 0.25 µg/mL, partner 8 µg/mL, one replicate",0.938
same,fitness,S. aureus Newman [5]; [14],0.812
same,fitness,S. aureus Newman [5]; [15],0.852
same,fitness,"S. aureus Newman [5]; first compound 0.5 µg/mL, partner 8 µg/mL, one replicate",0.84
same,fitness,"S. pneumoniae D39V [6]; first compound 0.0008 µg/mL, partner 1 µg/mL",0.936
same,fitness,"S. pneumoniae D39V [6]; first compound 0.0008 µg/mL, partner 2 µg/mL",0.972
same,fitness,"S. pneumoniae D39V [6]; first compound 0.0008 µg/mL, partner 4 µg/mL",0.926
same,fitness,"S. pneumoniae D39V [6]; first compound 0.0015 µg/mL, partner 1 µg/mL",0.882
same,fitness,"S. pneumoniae D39V [6]; first compound 0.0015 µg/mL, partner 2 µg/mL",0.928
same,fitness,"S. pneumoniae D39V [6]; first compound 0.0015 µg/mL, partner 4 µg/mL",0.878
same,fitness,"S. pneumoniae D39V [6]; first compound 0.003 µg/mL, partner 1 µg/mL",0.87
same,fitness,"S. pneumoniae D39V [6]; first compound 0.003 µg/mL, partner 2 µg/mL",0.883
same,fitness,"S. pneumoniae D39V [6]; first compound 0.003 µg/mL, partner 4 µg/mL",0.875
same,fitness,"S. pneumoniae D39V [6]; first compound 0.006 µg/mL, partner 1 µg/mL, one replicate",0.368
same,fitness,"S. pneumoniae D39V [6]; first compound 0.006 µg/mL, partner 2 µg/mL, one replicate",0.423
same,fitness,"S. pneumoniae D39V [6]; first compound 0.006 µg/mL, partner 4 µg/mL, one replicate",0.388
CC1(C)S[C@@H]2[C@H](NC(=O)[C@H](N)c3ccc(O)cc3)C(=O)N2[C@H]1C(=O)O [Amoxicillin] + Cc1ncc([N+](=O)[O-])n1CCO [Metronidazole],Bliss interaction score,S. aureus DSM 20231 [1],0.0885
same,Bliss interaction score,S. aureus Newman [2],0.0677
same,Bliss interaction score,B. subtilis 168,0.0817
same,Bliss interaction score,S. pneumoniae D39V [3],-0.0259
same,fitness,S. aureus DSM 20231 [4]; [16],0.588
same,fitness,S. aureus DSM 20231 [4]; [17],0.428
same,fitness,"S. aureus DSM 20231 [4]; first compound 0.5 µg/mL, partner 0.625 µg/mL",0.0108
same,fitness,"S. aureus DSM 20231 [4]; first compound 0.5 µg/mL, partner 1.25 µg/mL",0.0138
same,fitness,"S. aureus DSM 20231 [4]; first compound 0.5 µg/mL, partner 2.5 µg/mL",0.0153
same,fitness,S. aureus Newman [5]; [16],0.835
same,fitness,"S. aureus Newman [5]; first compound 0.0625 µg/mL, partner 0.781 µg/mL",0.922
same,fitness,"S. aureus Newman [5]; first compound 0.0625 µg/mL, partner 1.25 µg/mL",0.906
same,fitness,"S. aureus Newman [5]; first compound 0.0625 µg/mL, partner 1.562 µg/mL",0.917
same,fitness,"S. aureus Newman [5]; first compound 0.0625 µg/mL, partner 2.5 µg/mL",0.87
same,fitness,"S. aureus Newman [5]; first compound 0.0625 µg/mL, partner 3.124 µg/mL",0.913
same,fitness,"S. aureus Newman [5]; first compound 0.125 µg/mL, partner 0.625 µg/mL",0.839
same,fitness,"S. aureus Newman [5]; first compound 0.125 µg/mL, partner 0.781 µg/mL",0.952
same,fitness,S. aureus Newman [5]; [17],0.905
same,fitness,"S. aureus Newman [5]; first compound 0.125 µg/mL, partner 1.562 µg/mL",0.972
same,fitness,"S. aureus Newman [5]; first compound 0.125 µg/mL, partner 2.5 µg/mL",0.836
same,fitness,"S. aureus Newman [5]; first compound 0.125 µg/mL, partner 3.124 µg/mL",0.957
same,fitness,"S. aureus Newman [5]; first compound 0.25 µg/mL, partner 0.625 µg/mL",0.799
same,fitness,"S. aureus Newman [5]; first compound 0.25 µg/mL, partner 0.781 µg/mL",0.945
same,fitness,"S. aureus Newman [5]; first compound 0.25 µg/mL, partner 1.25 µg/mL",0.789
same,fitness,"S. aureus Newman [5]; first compound 0.25 µg/mL, partner 1.562 µg/mL",0.951
same,fitness,"S. aureus Newman [5]; first compound 0.25 µg/mL, partner 2.5 µg/mL",0.816
same,fitness,"S. aureus Newman [5]; first compound 0.25 µg/mL, partner 3.124 µg/mL",0.929
same,fitness,"S. pneumoniae D39V [6]; first compound 0.0008 µg/mL, partner 1.073 µg/mL",0.958
same,fitness,"S. pneumoniae D39V [6]; first compound 0.0008 µg/mL, partner 1.25 µg/mL, one replicate",≥ 1
same,fitness,"S. pneumoniae D39V [6]; first compound 0.0008 µg/mL, partner 2.145 µg/mL",0.946
same,fitness,"S. pneumoniae D39V [6]; first compound 0.0008 µg/mL, partner 2.5 µg/mL, one replicate",≥ 1
same,fitness,"S. pneumoniae D39V [6]; first compound 0.0008 µg/mL, partner 4.29 µg/mL",0.919
same,fitness,"S. pneumoniae D39V [6]; first compound 0.0008 µg/mL, partner 5 µg/mL, one replicate",≥ 1
same,fitness,"S. pneumoniae D39V [6]; first compound 0.0015 µg/mL, partner 1.073 µg/mL",0.972
same,fitness,"S. pneumoniae D39V [6]; first compound 0.0015 µg/mL, partner 1.25 µg/mL",0.988
same,fitness,"S. pneumoniae D39V [6]; first compound 0.0015 µg/mL, partner 2.145 µg/mL",0.926
same,fitness,"S. pneumoniae D39V [6]; first compound 0.0015 µg/mL, partner 2.5 µg/mL",≥ 1
same,fitness,"S. pneumoniae D39V [6]; first compound 0.0015 µg/mL, partner 4.29 µg/mL",0.941
same,fitness,"S. pneumoniae D39V [6]; first compound 0.0015 µg/mL, partner 5 µg/mL",0.995
same,fitness,"S. pneumoniae D39V [6]; first compound 0.003 µg/mL, partner 1.073 µg/mL",0.938
same,fitness,"S. pneumoniae D39V [6]; first compound 0.003 µg/mL, partner 1.25 µg/mL",0.97
same,fitness,"S. pneumoniae D39V [6]; first compound 0.003 µg/mL, partner 2.145 µg/mL",0.914
same,fitness,"S. pneumoniae D39V [6]; first compound 0.003 µg/mL, partner 2.5 µg/mL",0.989
same,fitness,"S. pneumoniae D39V [6]; first compound 0.003 µg/mL, partner 4.29 µg/mL",0.93
same,fitness,"S. pneumoniae D39V [6]; first compound 0.003 µg/mL, partner 5 µg/mL",0.946
same,fitness,"S. pneumoniae D39V [6]; first compound 0.006 µg/mL, partner 1.25 µg/mL, one replicate",0.561
same,fitness,"S. pneumoniae D39V [6]; first compound 0.006 µg/mL, partner 2.5 µg/mL, one replicate",0.587
same,fitness,"S. pneumoniae D39V [6]; first compound 0.006 µg/mL, partner 5 µg/mL, one replicate",0.574
